This is an account of results in patent US9487476B2, “Catechol diethers as potent anti-HIV agents” (priority 2011, dated 2016).

Read-outs that look alike come from different tables or passages of the source. Bounds are passed on as bounds.

The subject of series [1] is HIV-1 Y181C variant. The settings on record: literature; read-out: reported anti-HIV activity, Y181C; cited from earlier work.
Series [2] concerns HIV-1 K103N/Y181C variant. To be noted: literature; read-out: reported anti-HIV activity, K103N/Y181C; cited from earlier work.
In a further series the test system is WT HIV-1 (IIIB strain). Nature of the series: Anti-HIV-1 activity, protection of infected MT-2 cells (MTT). The class given is cell-based.
The subject of series [3] is HIV-1 variant containing the Y181C (Tyr181Cys) mutation. Briefly: Anti-HIV-1 activity against variant strain in MT-2 cells (MTT). The class given is cell-based.
Series [4] relates to HIV-1 variant containing the K103N/Y181C mutations. Briefly: Anti-HIV-1 activity against double-mutant strain in MT-2 cells (MTT). Type of series: cell-based.
In a further series the test system is MT-2 human T-cells. Briefly: Cytotoxicity, inhibition of MT-2 cell growth. Type of series: cell-based.
The nature of series [5]: Cytotoxicity, inhibition of MT-2 cell growth. The settings on record: human. The class given is cell-based, human.
In series [6] the test system is WT HIV-1. To be noted: literature; read-out: reported anti-HIV activity, WT HIV-1; cited from earlier work.
Series [7] has as its system WT HIV-1. The settings on record: Table 5, literature data (ref. 28), MT4 cells; cited from earlier work.
In series [8] the test system is HIV-1 Y181C variant. The settings on record: Table 5, literature data (ref. 28), MT4 cells; cited from earlier work.
Series [9] has as its system HIV-1 K103N/Y181C variant. To be noted: Table 5, literature data (ref. 28), MT4 cells; cited from earlier work.
A further series has as its system MT4 cells. To be noted: Table 5, literature data (ref. 28); cited from earlier work.
[10] abbreviates: Human immunodeficiency virus 1, IIIB, MT2, running text, read-out: EC50 against WT HIV-1.
Setting [11] is: Human immunodeficiency virus 1, MT2, read-out: EC50 Y181C.
The mark [12] stands for this setting: Human immunodeficiency virus 1, MT2, read-out: EC50 K103N/Y181C.
The mark [13] stands for this setting: Human immunodeficiency virus 1, MT2, read-out: EC50 Y181C variant.
Where [14] appears, read: Human immunodeficiency virus 1, MT2, read-out: EC50 K103N/Y181C variant.
The mark [15] stands for this setting: Table 4, catechol diether derivatives, MT-2 cells, read-out: Anti-HIV-1 Activity (EC50).
The mark [16] stands for this setting: Table 5, MT-2 cells, read-out: EC50 WT.
Where [17] appears, read: Table 5, MT-2 cells, read-out: EC50 Y181C.
Where [18] appears, read: Table 5, MT-2 cells, read-out: EC50 K103N/Y181C.
The mark [19] stands for this setting: Table 4, MT-2 cells, read-out: Cytotoxicity (CC50).
Where [20] appears, read: Table 5, MT-2 cells, read-out: Average Cytotoxicity (CC50).
The mark [21] stands for this setting: Human immunodeficiency virus 1, IIIB, MT2, read-out: Anti-HIV Activity (EC50).

Consider `Cc1cc(C)cc(Oc2c(CSCc3ccco3)c(C)[nH]c(=O)c2I)c1` [Compound 3], for which the EC50 (in the series on HIV-1 Y181C variant [1]; in [2]) was below 10 nM throughout.

Turning to `N#Cc1cc(Cl)cc(Oc2ccc(Cl)cc2OCCn2ccc(=O)[nH]c2=O)c1` [Compound 25, 3-chloro-5-(4-chloro-2-(2-(2,4-dioxo-3,4-dihydropyrimidin-1(2H)-yl)ethoxy)phenoxy)benzonitrile], the EC50 in the series with WT HIV-1 (IIIB strain) (setting [10]) was determined as 14 nM; in series [3] (setting [11]), 520 nM; in series [4] (setting [12]) it was 1700 nM. In the series on MT-2 human T-cells (human), this molecule had a CC50 above 100000 nM. The “cytotoxicity, limit of the tested concentration range” value with MT-2 human T-cells (human) is above 100 µM.

Consider `N#Cc1cc(Cl)cc(Oc2ccc(Cl)cc2OCCn2cc(Cl)c(=O)[nH]c2=O)c1` [Compound 27, 3-chloro-5-(4-chloro-2-(2-(5-chloro-2,4-dioxo-3,4-dihydropyrimidin-1(2H)-yl)ethoxy)phenoxy)benzonitrile], for which the EC50 with WT HIV-1 (IIIB strain) (setting [10]) worked out at 17 nM; in series [3] (setting [11]), 240 nM; in [3] (setting [13]), 240 nM; in series [4] (setting [12]) it was 570 nM; in [4] (setting [14]) it was 570 nM. In [3], the “ratio between variant and WT activities (Y181C/WT)” value is recorded as 14 fold. Moreover, the “ratio between variant and WT activities (K103N/Y181C / WT)” value in [4] came out at 34 fold. This molecule yielded a half-maximal cytotoxic concentration (CC50) in the series with MT-2 human T-cells (human) of 21000 nM.

Take `N#C/C=C/c1cccc(Oc2ccc(Cl)cc2OCCn2ccc(=O)[nH]c2=O)c1` [Compound 41, (E)-3-(3-(4-chloro-2-(2-(2,4-dioxo-3,4-dihydropyrimidin-1(2H)-yl)ethoxy)phenoxy)phenyl)acrylonitrile]: the results for the EC50 (in the series with WT HIV-1 (IIIB strain) (setting [10]); in series [3] (setting [11]); in series [4] (setting [12])) were 5 nM, 370 nM and 1600 nM, respectively.

With `N#C/C=C/c1cc(Cl)cc(Oc2ccc(Cl)cc2OCCn2ccc(=O)[nH]c2=O)c1` [Compound 42, (E)-3-(3-chloro-5-(4-chloro-2-(2-(2,4-dioxo-3,4-dihydropyrimidin-1(2H)-yl)ethoxy)phenoxy)phenyl)acrylonitrile], the therapeutic index in the series with WT HIV-1 (IIIB strain) (CC50 towards human T-cells vs WT EC50) is listed as > 180,000. Besides, the EC50 with WT HIV-1 (IIIB strain) (Human immunodeficiency virus 1, IIIB, MT2, read-out: EC50, initial WT assay) was found to be 0.024 nM; in the series on WT HIV-1 (IIIB strain) (Human immunodeficiency virus 1, IIIB, MT2, running text, side-by-side re-assay, read-out: EC50 against WT HIV-1) it was 0.055 nM; in [3] (setting [11]), 49 nM; in series [3] (setting [13]), 49 nM; in series [4] (setting [12]) it was 220 nM; in series [4] (setting [14]) it was 220 nM. In addition, the CC50 in series [5] was 10000 nM.

Consider `CNc1ccc(Oc2cc(Cl)cc(/C=C/C#N)c2)c(OCCn2ccc(=O)[nH]c2=O)c1` [Compound 43, (E)-3-(3-chloro-5-(2-(2-(2,4-dioxo-3,4-dihydropyrimidin-1(2H)-yl)ethoxy)-4-(methylamino)phenoxy)phenyl)acrylonitrile], for which the EC50 with WT HIV-1 (IIIB strain) (setting [10]) was found to be 20 nM; in series [3] (setting [11]) it was 2800 nM. In series [5], the CC50 turned out to be 30000 nM.

`N#Cc1cc(Cl)cc(Oc2cc(OCc3n[nH]c4ccccc34)ccc2Cl)c1` [Compound 72]: the EC50 in the series on HIV-1 Y181C variant [1] was 13.8 nM; in [2], 141 nM; in the series with WT HIV-1 [6], 4.7 nM.

On to `N#Cc1cc(Cl)cc(Oc2c(Cl)ccc(Cc3n[nH]c4nnccc34)c2F)c1` [Compound 73], for which the EC50 is 4 nM in series [2] and 1 nM in the series on WT HIV-1 [6].

As to `N#C/C=C/c1cc(F)cc(Oc2ccc(Cl)cc2OCCn2ccc(=O)[nH]c2=O)c1` [JLJ505], the EC50 in the series with WT HIV-1 (IIIB strain) (setting [15]) came to 3.2 nM; in the series on WT HIV-1 (IIIB strain) (setting [16]), 3.2 nM; in series [3] (setting [17]) it was 150 nM; in series [4] (setting [18]), 900 nM. For the same molecule, the results for the CC50 with MT-2 human T-cells (setting [19]) and in the series with MT-2 human T-cells (setting [20]) were above 48000 nM and at least 48000 nM, respectively.

Regarding `N#C/C=C/c1cc(F)cc(Oc2ccc(F)cc2OCCn2ccc(=O)[nH]c2=O)c1` [JLJ506], the EC50 was 0.342 nM in the series on WT HIV-1 (IIIB strain) (setting [15]), 0.342 nM with WT HIV-1 (IIIB strain) (setting [16]), 16 nM in [3] (setting [17]) and 85 nM in series [4] (setting [18]). Besides, the CC50 was above 45000 nM with MT-2 human T-cells (setting [19]) and at least 45000 nM with MT-2 human T-cells (setting [20]).

With `N#C/C=C/c1cc(F)cc(Oc2ccccc2OCCn2ccc(=O)[nH]c2=O)c1` [JLJ510], the EC50 in the series on WT HIV-1 (IIIB strain) (setting [15]) amounted to 0.9 nM; in the series on WT HIV-1 (IIIB strain) (setting [16]), 0.9 nM; in series [3] (setting [17]), 80 nM; in series [4] (setting [18]), 75 nM. Further, the half-maximal cytotoxic concentration (CC50) in the series with MT-2 human T-cells (setting [19]) was determined as 70000 nM; in the series with MT-2 human T-cells (setting [20]) it was 85000 nM.

Turning to `N#C/C=C/c1cc(Cl)cc(Oc2ccc(F)cc2OCCn2ccc(=O)[nH]c2=O)c1` [JLJ516], the EC50 came out at 0.77 nM in the series with WT HIV-1 (IIIB strain) (setting [15]), 0.77 nM in the series on WT HIV-1 (IIIB strain) (setting [16]), 60 nM in series [3] (setting [17]) and 250 nM in series [4] (setting [18]). Moreover, the CC50 with MT-2 human T-cells (setting [19]) is 62000 nM; with MT-2 human T-cells (setting [20]), 63000 nM.

Regarding `N#C/C=C/c1cc(Cl)cc(Oc2ccccc2OCCn2ccc(=O)[nH]c2=O)c1` [JLJ532], the EC50 amounted to 0.31 nM with WT HIV-1 (IIIB strain) (setting [15]), 0.31 nM in the series with WT HIV-1 (IIIB strain) (setting [16]), 46 nM in series [3] (setting [17]) and 24 nM in series [4] (setting [18]). Moreover, the cytotoxic concentration (CC50) in the series with MT-2 human T-cells (setting [19]) is 18000 nM; in the series on MT-2 human T-cells (setting [20]), 11000 nM.

For `Cc1cc2cc(Oc3cc(Cl)ccc3OCCn3ccc(=O)[nH]c3=O)ccc2o1` [JLJ538], in the series on WT HIV-1 (IIIB strain) (setting [21]), the EC50 worked out at 25 nM. Besides, half-maximal cytotoxicity in series [5] (CC50) was put at 8000 nM.

Take `O=c1ccn(CCOc2ccc(Cl)cc2Oc2ccc3occc3c2)c(=O)[nH]1` [JLJ539]: the EC50 in the series with WT HIV-1 (IIIB strain) (setting [21]) amounted to 800 nM. This molecule returned a CC50 in series [5] of 19000 nM.

As to `O=c1ccn(CCOc2ccccc2Oc2ccc3[nH]ccc3c2)c(=O)[nH]1` [JLJ547], in the series on WT HIV-1 (IIIB strain) (setting [21]), the EC50 was determined as 85 nM. Besides, in series [5], the 50% cytotoxic concentration (CC50) worked out at 53000 nM.

Consider `Cc1cc2cc(Oc3ccccc3OCCn3ccc(=O)[nH]c3=O)ccn2c1` [JLJ550], for which the EC50 in the series with WT HIV-1 (IIIB strain) (setting [21]) was 50 nM. Moreover, the CC50 in series [5] was found to be 9000 nM.

As to `O=c1ccn(CCOc2ccc(Cl)cc2Oc2ccc3ccoc3c2)c(=O)[nH]1` [JLJ552], in the series with WT HIV-1 (IIIB strain) (setting [21]), the EC50 was determined as 900 nM. This molecule displayed a CC50 in series [5] of 50000 nM.

In the case of `N#Cc1cc2cc(Oc3ccccc3OCCn3ccc(=O)[nH]c3=O)ccn2c1` [JLJ555], the EC50 in the series with WT HIV-1 (IIIB strain) (setting [21]) turned out to be 0.38 nM. In [5], this molecule gave a cytotoxic concentration (CC50) above 100000 nM.

Take `O=C1Nc2ccc(Cl)cc2[C@@](C#CC2CC2)(C(F)(F)F)O1` [efavirenz]: the results for the EC50 (with WT HIV-1 [7]; in the series on HIV-1 Y181C variant [8]; in series [9]) were 1.4 nM, 2 nM and 37 nM, respectively.

On to `Cc1cc(C#N)cc(C)c1Oc1nc(Nc2ccc(C#N)cc2)nc(N)c1Br` [etravirine], for which the results for the EC50 (with HIV-1 Y181C variant [8]; in series [9]) were 7 nM and 4 nM, respectively.

Take `Cc1cc(/C=C/C#N)cc(C)c1Nc1ccnc(Nc2ccc(C#N)cc2)n1` [rilpivirine, 4-[[4-[[4-[(1E)-2-cyanoethenyl]-2,6-dimethylphenyl]amino]-2-pyrimidinyl]amino]benzonitrile]: the CC50 in the series with MT-2 human T-cells (human) was above 1000 nM; with MT4 cells it was 8000 nM. Besides, the EC50 with WT HIV-1 [7] was 0.4 nM; with HIV-1 Y181C variant [8], 1.3 nM; in series [9] it was 1 nM.
